How the values were obtained:
[1] = tested on: (Male) Sxlp^e tTa^(A) × tRe lacZ^(III) (Female); assay: Reporter crosses at 25° C., embryos stained for lacZ
[2] = tested on: Yp3 tTa, tRe Ras64B^V12 on the 2nd chromosome; assay: Recombinant chromosome experiments / maternal transmission of Tc (Table 1): parents raised on supplement, progeny on normal food, adults by sex; format: in vivo, Drosophila melanogaster; details: for ♀ progeny emerging as adults / ♂ progeny emerging as adults: 25° C.
Experimental: 40-45 young females and 20-25 young males raised at 25° C. upon food with the indicated tetracycline supplement were allowed to mate, then transferred to normal (tetracycline-free) food after 3-4 days. These flies were transferred to fresh vials of normal food every day for 12 days, then removed on the 13th day. All the vials were incubated at 25° C. while the progeny developed. The numbers of male and female progeny emerging as adults in each vial were recorded.
A standard range of additive concentrations were used in the following experiments (0.05-20 μg/ml). […] (=“not done”)
All the preceding experiments were performed at 25° C., the standard temperature for Drosophila culture. However, the insects in the wild would clearly be exposed to varying temperatures, so we investigated the extent to which the efficiency of the system is affected by temperature. As with the recombinant chromosome experiments, 40-45 young virgin females and 20-25 young males raised at 25° C. upon food with the indicated tetracycline supplement were allowed to mate, then transferred to normal (tetracycline-free) food after 3-4 days. These flies were transferred to fresh vials of normal food every day. The numbers of male and female progeny emerging as adults in each vial were recorded. These experiments were performed at either 18° C. or 29° C.
We used a strain of Drosophila in which females, but not males, require Tc for viability.
A strain homozygous for second chromosome insertions of both Yp3-tTA and tRe-Ras64B^V12 was tested for the effect of parental dietary Tc. 40-45 young females and 20-25 young males raised at 25° C. upon food with the indicated tetracycline supplement were allowed to mate, then transferred to normal (tetracycline-free) food after 3-4 days. These flies were transferred to fresh vials of normal food every day for 12 days, and then removed on the 13th day. All the vials were incubated at 25° C. while the progeny developed. The total numbers of male and female progeny emerging as adults were recorded.

[3] = parents raised on Tc 0.1 μg/ml, Day 8 on normal food
[4] = parents raised on Tc 0.1 μg/ml, Day 9 on normal food
[5] = parents raised on Tc 0.1 μg/ml, Day 10 on normal food
[6] = parents raised on Tc 0.1 μg/ml, Day 11 on normal food
[7] = parents raised on Tc 0.1 μg/ml, Day 12 on normal food
[8] = parents raised on Tc 0.1 μg/ml, Total of Days 1-12 on normal food
[9] = parents raised on Tc 1 μg/ml, Day 8 on normal food
[10] = parents raised on Tc 1 μg/ml, Day 9 on normal food
[11] = parents raised on Tc 1 μg/ml, Day 10 on normal food
[12] = parents raised on Tc 1 μg/ml, Day 11 on normal food
[13] = parents raised on Tc 1 μg/ml, Day 12 on normal food
[14] = parents raised on Tc 1 μg/ml, Total of Days 1-12 on normal food
[15] = parents raised on Tc 5 μg/ml, Day 8 on normal food
[16] = parents raised on Tc 5 μg/ml, Total of Days 1-12 on normal food
[17] = parents raised on Tc 20 μg/ml, Day 1 on normal food
[18] = parents raised on Tc 20 μg/ml, Day 2 on normal food
[19] = parents raised on Tc 20 μg/ml, Day 3 on normal food
[20] = parents raised on Tc 20 μg/ml, Day 4 on normal food
[21] = parents raised on Tc 20 μg/ml, Day 5 on normal food
[22] = parents raised on Tc 20 μg/ml, Day 6 on normal food
[23] = parents raised on Tc 20 μg/ml, Day 7 on normal food
[24] = parents raised on Tc 100 μg/ml, Day 1 on normal food
[25] = parents raised on Tc 100 μg/ml, Day 2 on normal food
[26] = parents raised on Tc 100 μg/ml, Day 3 on normal food
[27] = parents raised on Tc 100 μg/ml, Day 4 on normal food
[28] = parents raised on Tc 100 μg/ml, Day 5 on normal food
[29] = parents raised on Tc 100 μg/ml, Day 6 on normal food
[30] = parents raised on Tc 100 μg/ml, Day 7 on normal food
[31] = parents raised on Tc 500 μg/ml, Day 1 on normal food
[32] = parents raised on Tc 500 μg/ml, Day 2 on normal food
[33] = parents raised on Tc 500 μg/ml, Day 3 on normal food
[34] = parents raised on Tc 500 μg/ml, Day 4 on normal food
[35] = parents raised on Tc 500 μg/ml, Day 5 on normal food
[36] = parents raised on Tc 500 μg/ml, Day 6 on normal food
[37] = parents raised on Tc 500 μg/ml, Day 7 on normal food
[38] = parents raised on Tc 1000 μg/ml, Day 1 on normal food
[39] = parents raised on Tc 1000 μg/ml, Day 2 on normal food
[40] = parents raised on Tc 1000 μg/ml, Day 3 on normal food
[41] = parents raised on Tc 1000 μg/ml, Day 4 on normal food
[42] = parents raised on Tc 1000 μg/ml, Day 5 on normal food
[43] = parents raised on Tc 1000 μg/ml, Day 6 on normal food
[44] = parents raised on Tc 1000 μg/ml, Day 7 on normal food
[45] = parents raised on Tc 2000 μg/ml, Day 1 on normal food
[46] = parents raised on Tc 2000 μg/ml, Day 2 on normal food
[47] = parents raised on Tc 2000 μg/ml, Day 3 on normal food
[48] = parents raised on Tc 2000 μg/ml, Day 4 on normal food
[49] = parents raised on Tc 2000 μg/ml, Day 5 on normal food
[50] = parents raised on Tc 2000 μg/ml, Day 6 on normal food
[51] = parents raised on Tc 2000 μg/ml, Day 7 on normal food
[52] = parents raised on tetracycline 0.1 μg/ml, 18° C.
[53] = parents raised on tetracycline 0.1 μg/ml, 29° C.
[54] = parents raised on tetracycline 1 μg/ml, 18° C.
[55] = parents raised on tetracycline 1 μg/ml, 29° C.
[56] = parents raised on tetracycline 5 μg/ml, 18° C.
[57] = parents raised on tetracycline 5 μg/ml, 29° C.

## CN(C)[C@@H]1C(O)=C(C(N)=O)C(=O)[C@@]2(O)C(O)=C3C(=O)c4c(O)cccc4[C@@](C)(O)[C@H]3C[C@@H]12 [Tetracycline, tetracycline]
[1]; Tetracycline 0.1 μg/ml in food
  LacZ negative Total: 518
  LacZ positive Total: 0
[1]; Tetracycline 1 μg/ml in food
  LacZ negative Total: 707
  LacZ positive Total: 0
[1]; Tetracycline 5 μg/ml in food
  LacZ negative Total: 702
  LacZ positive Total: 0
[2]; [3]
  ♀ progeny emerging as adults: 0
  ♂ progeny emerging as adults: 105
[2]; [4]
  ♀ progeny emerging as adults: 0
  ♂ progeny emerging as adults: 133
[2]; [5]
  ♀ progeny emerging as adults: 0
  ♂ progeny emerging as adults: 93
[2]; [6]
  ♀ progeny emerging as adults: 0
  ♂ progeny emerging as adults: 131
[2]; [7]
  ♀ progeny emerging as adults: 0
  ♂ progeny emerging as adults: 121
[2]; [8]
  ♀ progeny emerging as adults: 0
  ♂ progeny emerging as adults: 1363
[2]; [9]
  ♀ progeny emerging as adults: 0
  ♂ progeny emerging as adults: 90
[2]; [10]
  ♀ progeny emerging as adults: 0
  ♂ progeny emerging as adults: 119
[2]; [11]
  ♀ progeny emerging as adults: 0
  ♂ progeny emerging as adults: 94
[2]; [12]
  ♀ progeny emerging as adults: 0
  ♂ progeny emerging as adults: 98
[2]; [13]
  ♀ progeny emerging as adults: 0
  ♂ progeny emerging as adults: 100
[2]; [14]
  ♀ progeny emerging as adults: 0
  ♂ progeny emerging as adults: 1360
[2]; [15]
  ♀ progeny emerging as adults: 0
  ♂ progeny emerging as adults: 119
[2]; parents raised on Tc 5 μg/ml, Day 9 on normal food
  ♂ progeny emerging as adults: 96
[2]; parents raised on Tc 5 μg/ml, Day 12 on normal food
  ♀ progeny emerging as adults: 0
[2]; [16]
  ♀ progeny emerging as adults: 0
  ♂ progeny emerging as adults: 1384
[2]; [17]
  ♀ progeny emerging as adults: 0
  ♂ progeny emerging as adults: 89
[2]; [18]
  ♀ progeny emerging as adults: 0
  ♂ progeny emerging as adults: 107
[2]; [19]
  ♀ progeny emerging as adults: 0
  ♂ progeny emerging as adults: 107
[2]; [20]
  ♀ progeny emerging as adults: 0
  ♂ progeny emerging as adults: 98
[2]; [21]
  ♀ progeny emerging as adults: 0
  ♂ progeny emerging as adults: 88
[2]; [22]
  ♀ progeny emerging as adults: 0
  ♂ progeny emerging as adults: 102
[2]; [23]
  ♀ progeny emerging as adults: 0
  ♂ progeny emerging as adults: 107
[2]; [24]
  ♀ progeny emerging as adults: 0
  ♂ progeny emerging as adults: 129
[2]; [25]
  ♀ progeny emerging as adults: 0
  ♂ progeny emerging as adults: 136
[2]; [26]
  ♀ progeny emerging as adults: 0
  ♂ progeny emerging as adults: 128
[2]; [27]
  ♀ progeny emerging as adults: 0
  ♂ progeny emerging as adults: 127
[2]; [28]
  ♀ progeny emerging as adults: 0
  ♂ progeny emerging as adults: 135
[2]; [29]
  ♀ progeny emerging as adults: 0
  ♂ progeny emerging as adults: 144
[2]; [30]
  ♀ progeny emerging as adults: 0
  ♂ progeny emerging as adults: 107
[2]; [31]
  ♀ progeny emerging as adults: 2
  ♂ progeny emerging as adults: 136
[2]; [32]
  ♀ progeny emerging as adults: 0
  ♂ progeny emerging as adults: 88
[2]; [33]
  ♀ progeny emerging as adults: 0
  ♂ progeny emerging as adults: 113
[2]; [34]
  ♀ progeny emerging as adults: 0
  ♂ progeny emerging as adults: 113
[2]; [35]
  ♀ progeny emerging as adults: 0
  ♂ progeny emerging as adults: 87
[2]; [36]
  ♀ progeny emerging as adults: 0
  ♂ progeny emerging as adults: 94
[2]; [37]
  ♀ progeny emerging as adults: 0
  ♂ progeny emerging as adults: 109
[2]; [38]
  ♀ progeny emerging as adults: 13
  ♂ progeny emerging as adults: 107
[2]; [39]
  ♀ progeny emerging as adults: 5
  ♂ progeny emerging as adults: 140
[2]; [40]
  ♀ progeny emerging as adults: 0
  ♂ progeny emerging as adults: 110
[2]; [41]
  ♀ progeny emerging as adults: 0
  ♂ progeny emerging as adults: 141
[2]; [42]
  ♀ progeny emerging as adults: 0
  ♂ progeny emerging as adults: 98
[2]; [43]
  ♀ progeny emerging as adults: 0
  ♂ progeny emerging as adults: 129
[2]; [44]
  ♀ progeny emerging as adults: 0
  ♂ progeny emerging as adults: 88
[2]; [45]
  ♀ progeny emerging as adults: 32
  ♂ progeny emerging as adults: 119
[2]; [46]
  ♀ progeny emerging as adults: 15
  ♂ progeny emerging as adults: 102
[2]; [47]
  ♀ progeny emerging as adults: 12
  ♂ progeny emerging as adults: 107
[2]; [48]
  ♀ progeny emerging as adults: 9
  ♂ progeny emerging as adults: 109
[2]; [49]
  ♀ progeny emerging as adults: 8
  ♂ progeny emerging as adults: 109
[2]; [50]
  ♀ progeny emerging as adults: 2
  ♂ progeny emerging as adults: 140
[2]; [51]
  ♀ progeny emerging as adults: 0
  ♂ progeny emerging as adults: 127
[2]; [52]
  Female progeny emerging as adults: 2
  Male progeny emerging as adults: 1190
[2]; [53]
  Female progeny emerging as adults: 0
  Male progeny emerging as adults: 718
[2]; [54]
  Female progeny emerging as adults: 4
  Male progeny emerging as adults: 1213
[2]; [55]
  Female progeny emerging as adults: 0
  Male progeny emerging as adults: 753
[2]; [56]
  Female progeny emerging as adults: 0
  Male progeny emerging as adults: 1058
[2]; [57]
  Female progeny emerging as adults: 0
  Male progeny emerging as adults: 757
[2]; progeny on media lacking Tc
  parental food concentration leading to survival of a small proportion of female progeny: ≥ 500 µg/mL
[2]; strain grown on supplemented food
  food concentration sufficient to suppress expression of the toxic gene, allowing both males and females to survive: 0.1 µg/mL
